Data on 1 compound can be found in patent publication US20040209843A1, “Aqueous cilostazol preparation for injection” (priority 2001, published 2004).

Converted amounts (≈) assume the structure as drawn.

The conditions of series [1]: ordinary temperatures; cited from earlier work.
The nature of series [2]: saturated concentration (solubility) of cilostazol in aqueous cyclodextrin solutions, determined by HPLC. The series is classed as physicochemical. The note with it: aqueous with cosolvent or surfactant or cyclodextrin, thermodynamic from solid; excess cilostazol in water for injection with the row's cyclodextrin compound at the row's concentration (g/L); shaken at 60° C. for 24 hours, membrane filtered, HPLC of filtrate. The protocol:
Each of the following cyclodextrin compounds was dissolved in water for injection. To this, an excess amount of cilostazol was added and the mixture was shaken at 60° C. for 24 hours. Then, the mixture was filtered through a membrane filter to remove insoluble materials and the amount of cilostazol in the filtrate was determined by the method of HPLC (High Performance Liquid Chromatography) to calculate the saturated concentration (solubility). Cyclodextrin compounds used were alpha-cyclodextrin (Trade Name: Celdex A-100, manufactured by NIHON SHOKUHIN KAKO Co. Ltd., beta-cyclodextrin (Trade Name: Celdex B-100, manufactured by NIHON SHOKUHIN KAKO Co. Ltd.), gamma-cyclodextrin (Trade Name: Celdex C-100, manufactured by NIHON SHOKUHIN KAKO Co. Ltd.), 6-O-alpha-maltosyl-beta-cyclodextrin (manufactured by Ensuiko Sugar Refining Co., Ltd), 2-hydroxypropyl-beta-cyclodextrin (Trade Name: Celdex HP-beta-CD, manufactured by NIHON SHOKUHIN KAKO Co. Ltd), hepta-substituted sulfobutylether-beta-cyclodextrin sodium salt (hereinafter abbreviated as SBE7-beta-CD)(Trade Name: Captisol, manufactured by CyDex Inc.).
Also, as a Reference Example, the solubility of cilostazol without addition of cyclodextrin compounds was determined similarly.

As usually defined, the solubility is the concentration that dissolves in the medium under given conditions. High values mean much dissolved substance, low ones little dissolved substance. Turning to `O=C1CCc2cc(OCCCCc3nnnn3C3CCCCC3)ccc2N1` [Cilostazol, 6-[4-(1-cyclohexyl-1,2,3,4-Tetrazol-5-yl)butoxy]-3,4-dihydrocarbostyril], the solubility in water result in series [1] is “about 3 μg/ml”. The solubility at 24 h in series [2] was 3.5 µg/mL (≈ 9.47 µM).
